What was measured:
[1] = molecular target: T1, Gamma-aminobutyric acid receptor subunit alpha-6/beta-3/gamma-2 (Rattus norvegicus, UniProt P18508+P30191+P63079); assay: (§1) Positive allosteric modulation of rat recombinant GABAA alpha6beta3alpha6-gamma2beta3 receptor expressed in Xenopus laevis oocytes assessed as increase in GABA-induced current amplitude at -80 mV holding potential under more potent phase in presence of GABA EC1 to 1.5 by two-electrode voltage-clamp assay; assay type: cell-based, Oocyte
T1 sequence (P18508 whole entry): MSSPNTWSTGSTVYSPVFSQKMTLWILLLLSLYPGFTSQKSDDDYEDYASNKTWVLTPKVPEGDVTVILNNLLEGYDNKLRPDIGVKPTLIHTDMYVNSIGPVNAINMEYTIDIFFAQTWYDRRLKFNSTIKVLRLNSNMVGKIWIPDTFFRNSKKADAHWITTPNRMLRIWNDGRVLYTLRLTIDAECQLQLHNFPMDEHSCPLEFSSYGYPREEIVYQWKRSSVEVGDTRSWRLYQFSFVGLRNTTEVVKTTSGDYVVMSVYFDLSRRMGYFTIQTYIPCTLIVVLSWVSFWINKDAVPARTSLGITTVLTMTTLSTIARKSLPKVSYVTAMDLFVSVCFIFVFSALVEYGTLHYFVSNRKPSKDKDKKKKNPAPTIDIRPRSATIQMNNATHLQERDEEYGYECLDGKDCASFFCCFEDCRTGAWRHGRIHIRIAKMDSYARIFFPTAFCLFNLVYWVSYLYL
T1 sequence (P30191 whole entry): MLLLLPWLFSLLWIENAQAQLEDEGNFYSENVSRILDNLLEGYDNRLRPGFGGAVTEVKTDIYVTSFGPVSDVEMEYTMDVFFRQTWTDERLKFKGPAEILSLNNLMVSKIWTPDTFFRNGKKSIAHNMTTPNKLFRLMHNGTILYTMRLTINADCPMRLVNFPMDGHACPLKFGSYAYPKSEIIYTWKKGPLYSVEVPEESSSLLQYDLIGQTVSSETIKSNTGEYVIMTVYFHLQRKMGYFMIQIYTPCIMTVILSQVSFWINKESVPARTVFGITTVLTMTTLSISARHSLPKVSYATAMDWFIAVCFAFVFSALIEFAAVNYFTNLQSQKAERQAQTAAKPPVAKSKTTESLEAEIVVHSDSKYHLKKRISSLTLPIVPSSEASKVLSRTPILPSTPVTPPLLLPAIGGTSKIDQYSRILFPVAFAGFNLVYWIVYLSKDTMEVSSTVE
T1 sequence (P63079 whole entry): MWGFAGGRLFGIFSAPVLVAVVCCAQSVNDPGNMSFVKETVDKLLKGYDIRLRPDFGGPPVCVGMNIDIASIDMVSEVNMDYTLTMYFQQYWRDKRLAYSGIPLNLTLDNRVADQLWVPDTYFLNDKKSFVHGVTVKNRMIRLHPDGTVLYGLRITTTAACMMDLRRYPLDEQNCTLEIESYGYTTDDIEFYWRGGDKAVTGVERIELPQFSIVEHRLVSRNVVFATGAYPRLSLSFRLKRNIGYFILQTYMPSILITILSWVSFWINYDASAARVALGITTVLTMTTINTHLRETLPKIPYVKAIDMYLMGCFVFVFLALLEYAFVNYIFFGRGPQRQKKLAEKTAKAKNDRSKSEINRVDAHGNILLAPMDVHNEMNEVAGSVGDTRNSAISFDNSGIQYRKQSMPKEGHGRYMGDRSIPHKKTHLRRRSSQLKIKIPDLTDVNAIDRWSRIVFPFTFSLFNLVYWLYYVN

[2] = molecular target: T1, Gamma-aminobutyric acid receptor subunit alpha-6/beta-3/gamma-2; assay: as §1, with “less” for “more”; assay type: cell-based, Oocyte
[3] = molecular target: T2, Gamma-aminobutyric acid receptor subunit alpha-6/beta-3/gamma-2 (Rattus norvegicus) (UniProt P18508+P30191+P63079); assay: Positive allosteric modulation of rat recombinant GABAA alpha6beta3alpha6-gamma2beta3 receptor expressed in Xenopus laevis oocytes assessed as maximal current at -80 mV holding potential under more potent phase in presence of GABA EC1 to 1.5 by two-electrode voltage-clamp assay relative to control; assay type: cell-based; settings: Oocyte, filed as positive allosteric modulator
[4] = molecular target: T2, Gamma-aminobutyric acid receptor subunit alpha-6/beta-3/gamma-2 (Rattus norvegicus); assay: Positive allosteric modulation of rat recombinant GABAA alpha6beta3alpha6-gamma2beta3 receptor expressed in Xenopus laevis oocytes assessed as maximal current under less potent phase in presence of GABA EC1 to 1.5 by two-electrode voltage-clamp assay relative to control; assay type: cell-based; settings: Oocyte, filed as positive allosteric modulator
[5] = molecular target: T2, Gamma-aminobutyric acid receptor subunit alpha-6/beta-3/gamma-2 (Rattus norvegicus); assay: Positive allosteric modulation of rat recombinant GABAA alpha6beta3alpha6-gamma2beta3 receptor expressed in Xenopus laevis oocytes assessed as maximal efficacy at -80 mV holding potential at 1 nM in presence of GABA EC1 to 1.5 by two-electrode voltage-clamp assay; assay type: cell-based; settings: Oocyte
[6] = molecular target: T2, Gamma-aminobutyric acid receptor subunit alpha-6/beta-3/gamma-2 (Rattus norvegicus); assay: Positive allosteric modulation of rat recombinant GABAA alpha6beta3alpha6-gamma2beta3 receptor expressed in Xenopus laevis oocytes assessed as maximal efficacy at -80 mV holding potential at 3 nM in presence of GABA EC1 to 1.5 by two-electrode voltage-clamp assay; assay type: cell-based; settings: Oocyte
[7] = molecular target: T2, Gamma-aminobutyric acid receptor subunit alpha-6/beta-3/gamma-2 (Rattus norvegicus); assay: Positive allosteric modulation of rat recombinant GABAA alpha6beta3alpha6-gamma2beta3 receptor expressed in Xenopus laevis oocytes assessed as maximal efficacy at -80 mV holding potential at 10 nM in presence of GABA EC1 to 1.5 by two-electrode voltage-clamp assay; assay type: cell-based; settings: Oocyte
[8] = molecular target: T2, Gamma-aminobutyric acid receptor subunit alpha-6/beta-3/gamma-2 (Rattus norvegicus); assay: Positive allosteric modulation of rat recombinant GABAA alpha6beta3alpha6-gamma2beta3 receptor expressed in Xenopus laevis oocytes assessed as maximal efficacy at -80 mV holding potential at 30 nM in presence of GABA EC1 to 1.5 by two-electrode voltage-clamp assay; assay type: cell-based; settings: Oocyte
[9] = molecular target: T2, Gamma-aminobutyric acid receptor subunit alpha-6/beta-3/gamma-2 (Rattus norvegicus); assay: Positive allosteric modulation of rat recombinant GABAA alpha6beta3alpha6-gamma2beta3 receptor expressed in Xenopus laevis oocytes assessed as maximal efficacy at -80 mV holding potential at 100 nM in presence of GABA EC1 to 1.5 by two-electrode voltage-clamp assay; assay type: cell-based; settings: Oocyte, filed as positive allosteric modulator
[10] = molecular target: T2, Gamma-aminobutyric acid receptor subunit alpha-6/beta-3/gamma-2 (Rattus norvegicus); assay: Positive allosteric modulation of rat recombinant GABAA alpha6beta3alpha6-gamma2beta3 receptor expressed in Xenopus laevis oocytes assessed as maximal efficacy at -80 mV holding potential at 300 nM in presence of GABA EC1 to 1.5 by two-electrode voltage-clamp assay; assay type: cell-based; settings: Oocyte, filed as positive allosteric modulator
[11] = molecular target: T2, Gamma-aminobutyric acid receptor subunit alpha-6/beta-3/gamma-2 (Rattus norvegicus); assay: Positive allosteric modulation of rat recombinant GABAA alpha6beta3alpha6-gamma2beta3 receptor expressed in Xenopus laevis oocytes assessed as maximal efficacy at -80 mV holding potential at 1 uM in presence of GABA EC1 to 1.5 by two-electrode voltage-clamp assay; assay type: cell-based; settings: Oocyte, filed as positive allosteric modulator
[12] = molecular target: T2, Gamma-aminobutyric acid receptor subunit alpha-6/beta-3/gamma-2 (Rattus norvegicus); assay: Positive allosteric modulation of rat recombinant GABAA alpha6beta3alpha6-gamma2beta3 receptor expressed in Xenopus laevis oocytes assessed as maximal efficacy at -80 mV holding potential at 3 uM in presence of GABA EC1 to 1.5 by two-electrode voltage-clamp assay; assay type: cell-based; settings: Oocyte, filed as positive allosteric modulator
[13] = molecular target: T2, Gamma-aminobutyric acid receptor subunit alpha-6/beta-3/gamma-2 (Rattus norvegicus); assay: Positive allosteric modulation of rat recombinant GABAA alpha6beta3alpha6-gamma2beta3 receptor expressed in Xenopus laevis oocytes assessed as maximal efficacy at -80 mV holding potential at 10 uM in presence of GABA EC1 to 1.5 by two-electrode voltage-clamp assay; assay type: cell-based; settings: Oocyte, filed as positive allosteric modulator
[14] = molecular target: T2, Gamma-aminobutyric acid receptor subunit alpha-6/beta-3/gamma-2 (Rattus norvegicus); assay: Positive allosteric modulation of rat recombinant GABAA alpha6beta3alpha6-gamma2beta3 receptor expressed in Xenopus laevis oocytes assessed as maximal efficacy at -80 mV holding potential at 30 uM in presence of GABA EC1 to 1.5 by two-electrode voltage-clamp assay; assay type: cell-based; settings: Oocyte, filed as positive allosteric modulator
[15] = molecular target: T3, Gamma-aminobutyric acid receptor subunit alpha-1/beta-3/gamma-2 (Rattus norvegicus) (UniProt P18508+P62813+P63079); assay: Positive allosteric modulation of rat recombinant GABAA alpha1beta3alpha1-gamma2beta3 receptor expressed in Xenopus laevis oocytes assessed as maximal efficacy at -80 mV holding potential at 30 nM in presence of GABA EC1 to 1.5 by two-electrode voltage-clamp assay; assay type: cell-based; settings: Oocyte
[16] = molecular target: T3, Gamma-aminobutyric acid receptor subunit alpha-1/beta-3/gamma-2 (Rattus norvegicus); assay: Positive allosteric modulation of rat recombinant GABAA alpha1beta3alpha1-gamma2beta3 receptor expressed in Xenopus laevis oocytes assessed as maximal efficacy at -80 mV holding potential at 100 nM in presence of GABA EC1 to 1.5 by two-electrode voltage-clamp assay; assay type: cell-based; settings: Oocyte
[17] = molecular target: T3, Gamma-aminobutyric acid receptor subunit alpha-1/beta-3/gamma-2 (Rattus norvegicus); assay: Positive allosteric modulation of rat recombinant GABAA alpha1beta3alpha1-gamma2beta3 receptor expressed in Xenopus laevis oocytes assessed as maximal efficacy at -80 mV holding potential at 300 nM in presence of GABA EC1 to 1.5 by two-electrode voltage-clamp assay; assay type: cell-based; settings: Oocyte
[18] = molecular target: T3, Gamma-aminobutyric acid receptor subunit alpha-1/beta-3/gamma-2 (Rattus norvegicus); assay: Positive allosteric modulation of rat recombinant GABAA alpha1beta3alpha1-gamma2beta3 receptor expressed in Xenopus laevis oocytes assessed as maximal efficacy at -80 mV holding potential at 30 uM in presence of GABA EC1 to 1.5 by two-electrode voltage-clamp assay; assay type: cell-based; settings: Oocyte, filed as positive allosteric modulator
[19] = molecular target: T4, Gamma-aminobutyric acid receptor subunit alpha-1/alpha-6/beta-3/gamma-2 (Rattus norvegicus) (UniProt P18508+P30191+P62813+P63079); assay: Positive allosteric modulation of rat recombinant GABAA alpha6beta3alpha1-gamma2beta3 receptor expressed in Xenopus laevis oocytes assessed as maximal efficacy at -80 mV holding potential at 30 nM in presence of GABA EC1 to 1.5 by two-electrode voltage-clamp assay; assay type: cell-based; settings: Oocyte
[20] = molecular target: T4, Gamma-aminobutyric acid receptor subunit alpha-1/alpha-6/beta-3/gamma-2 (Rattus norvegicus); assay: Positive allosteric modulation of rat recombinant GABAA alpha6beta3alpha1-gamma2beta3 receptor expressed in Xenopus laevis oocytes assessed as maximal efficacy at -80 mV holding potential at 100 nM in presence of GABA EC1 to 1.5 by two-electrode voltage-clamp assay; assay type: cell-based; settings: Oocyte
[21] = molecular target: T4, Gamma-aminobutyric acid receptor subunit alpha-1/alpha-6/beta-3/gamma-2 (Rattus norvegicus); assay: Positive allosteric modulation of rat recombinant GABAA alpha6beta3alpha1-gamma2beta3 receptor expressed in Xenopus laevis oocytes assessed as maximal efficacy at -80 mV holding potential at 300 nM in presence of GABA EC1 to 1.5 by two-electrode voltage-clamp assay; assay type: cell-based; settings: Oocyte
[22] = molecular target: T4, Gamma-aminobutyric acid receptor subunit alpha-1/alpha-6/beta-3/gamma-2 (Rattus norvegicus); assay: Positive allosteric modulation of rat recombinant GABAA alpha6beta3alpha1-gamma2beta3 receptor expressed in Xenopus laevis oocytes assessed as maximal efficacy at -80 mV holding potential at 30 uM in presence of GABA EC1 to 1.5 by two-electrode voltage-clamp assay; assay type: cell-based; settings: Oocyte, filed as positive allosteric modulator
[23] = molecular target: T1, Gamma-aminobutyric acid receptor subunit alpha-6/beta-3/gamma-2; assay: Positive allosteric modulation of rat recombinant GABAA alpha6beta3alpha6-gamma2beta3 receptor expressed in Xenopus laevis oocytes assessed as increase in GABA-induced current amplitude at -80 mV holding potential in presence of GABA EC1 to 1.5 by two-electrode voltage-clamp assay; assay type: cell-based, Oocyte
[24] = molecular target: T2, Gamma-aminobutyric acid receptor subunit alpha-6/beta-3/gamma-2 (Rattus norvegicus); assay: Positive allosteric modulation of rat recombinant GABAA alpha6beta3alpha6-gamma2beta3 receptor expressed in Xenopus laevis oocytes assessed as maximal current at -80 mV holding potential in presence of GABA EC1 to 1.5 by two-electrode voltage-clamp assay relative to control; assay type: cell-based; settings: Oocyte, filed as positive allosteric modulator
[25] = filed as positive allosteric modulator

SMILES	EC50 [1]	EC50 [2]	%max [3]	%max [4]	Efficacy [5]	Efficacy [6]	Efficacy [7, 25]	Efficacy [8, 25]	Efficacy [9]	Efficacy [10]	Efficacy [11]	Efficacy [12]	Efficacy [13]	Efficacy [14]	Efficacy [18]	Efficacy [22]	EC50 [23]	%max [24]	Efficacy [7]	Efficacy [8]	further results
COc1ccc(-n2nc3c4ccc(C(F)(F)F)cc4[nH]cc-3c2=O)cc1	0.013 µM	100 µM	49%	2970%	13%	23%	43%	62%	83%	100%	147%	216%	590%	1370%	851%	1570%					Efficacy [15]: 9%; Efficacy [16]: 14%; Efficacy [17]: 18%; Efficacy [19]: 1%; Efficacy [20]: 5%; Efficacy [21]: 10%
COc1ccc(-n2nc3c4ccc(OC)cc4[nH]cc-3c2=O)cc1	0.008 µM	118 µM	113%	1630%	31%		75%	105%	125%	143%	178%	234%	400%	702%	71%	446%					Efficacy [6, 25]: 59%
COc1ccc(-n2nc3c4ccccc4[nH]cc-3c2=O)cc1						1%			57%	63%	152%	214%	751%	1360%			9 µM	1480%	8%	19%	
C#Cc1ccc2c3nn(-c4ccc(OC)cc4)c(=O)c-3c[nH]c2c1					9%	12%			70%	98%	163%	325%	581%	732%			5 µM	946%	27%	39%	
COc1ccc(-n2nc3c4ccc(F)cc4[nH]cc-3c2=O)cc1	0.028 µM	32 µM	96%	353%	6%	16%		46%	77%	118%	156%	235%	300%	385%					28%		
